# Patent US20070123460A1, “Probiotic compounds from Lactobacillus GG and uses therefor” (THE UNIVERSITY OF CHICAGO, priority 2005, published 2007)
# System: Hsp72
# Assay: Hsp72 induction in YAMC cells, Western blot
# Type: cell-based, mouse
# Details: inhibitor 2 hours before LGG-CM (15 minutes); harvest 4 hours later; SB203580 20 μM, SP600125 20 μM, PD98059 50 μM
# Procedure: Prior to each study, cells were plated at a density of 2×10^5 per 60 mm tissue culture dish. For RNA preparation, cells were plated at a density of 7.5×10^5 cells per p100 mm dish. After 24 hours of growth at 33° C., the medium was replaced with IFN-free media and cells were moved to 37° C. (non-permissive conditions) for 24 hours to allow development of the differentiated colonocyte phenotype. […] Heat shock controls were heat-shocked at 42° C. for 23 minutes and then left at 37° C. for 2 hours before harvest.
# Intestinal epithelial cells were treated with conditioned media from the probiotic LGG and then assayed for inducible heat shock protein expression. For Western blot analyses of expression, cells were washed twice and then scraped in ice-cold PBS (137 mM NaCl, 2.7 mM KCl, 8 mM Na2HPO4, pH 7.4). Cells were pelleted (14,000×g for 20 seconds at room temperature), then resuspended in ice-cold lysis buffer (10 mM Tris, pH 7.4, 5 mM MgCl2, 50 U/ml each of DNAse and RNAse, plus complete protease inhibitor cocktail (Roche Molecular Biochemicals, Indianapolis, Ind.)). Protein concentrations were determined using the bicinchoninic acid procedure (Smith et al., 1985). Samples were heated to 75° C. for 5 minutes after addition of 3× Laemmli Stop buffer, then stored at −80° C. until use.
# Twenty micrograms of protein per lane were resolved on 12.5% SDS-PAGE. […]
smiles,measurement,value
COc1cccc(-c2cc(=O)c3ccccc3o2)c1N [PD98059],inhibition of LGG-CM-induced Hsp72 expression,more modest effect
